Test results reported in US10774083B2, “Heterocyclic amide compound” (TAKEDA PHARMACEUTICAL COMPANY LIMITED, priority 2016, dated 2020).

Assays:
[1] = target: T1, human PRS protein (His-Avi-hEPRS (998-1512)) (Homo sapiens, UniProt P07814); assay: PRS inhibitory activity ([32P]pyrophosphate exchange enzyme assay); format: biochemical; conditions: 300 nM test compound; read-out: inhibitory rate (%) of PRS
T1 construct: to construct His-Avi-hEPRS (998-1512) expression plasmid; His tag (N); Avi tag (N); TEV cleavage site (ENLYFQG, then S; inferred from the forward primer hEPRS-TEV-NheF) (N); made in house; host or cells: E. coli BL21(DE3)
T1 sequence (P07814 998-1512 limits assumed): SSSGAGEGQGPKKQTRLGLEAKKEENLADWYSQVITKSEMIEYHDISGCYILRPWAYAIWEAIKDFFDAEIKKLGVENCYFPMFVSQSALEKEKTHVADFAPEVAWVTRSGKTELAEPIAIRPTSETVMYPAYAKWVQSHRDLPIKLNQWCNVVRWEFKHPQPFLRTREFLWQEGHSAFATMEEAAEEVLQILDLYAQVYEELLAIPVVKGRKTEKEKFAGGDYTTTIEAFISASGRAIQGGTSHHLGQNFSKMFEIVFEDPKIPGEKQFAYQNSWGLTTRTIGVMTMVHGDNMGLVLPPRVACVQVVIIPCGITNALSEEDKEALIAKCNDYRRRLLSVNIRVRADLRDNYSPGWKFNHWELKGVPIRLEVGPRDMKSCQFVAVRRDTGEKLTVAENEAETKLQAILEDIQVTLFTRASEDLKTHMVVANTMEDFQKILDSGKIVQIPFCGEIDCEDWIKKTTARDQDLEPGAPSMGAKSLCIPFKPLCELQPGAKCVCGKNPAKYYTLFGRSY
Procedure, shortened: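 Compound was pre-incubated 60 min with 40 nM His-Avi-hEPRS (998-1512) (stock, E. coli-expressed) in Tris pH 7.5/KCl/DTT/Tween/MgCl2. Reaction began with substrate mix containing 300 μM ATP, 160 μM L-proline, 400 μM [32P]pyrophosphate (stock levels) and ran 30 min at room temperature. Charcoal-bound radioactivity was counted; inhibition was relative to no-reaction control.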

[2] = test system: human ovarian cancer cells A2780; assay: proliferation inhibitory activity against human ovarian cancer cell A2780 (CellTiter-Glo); format: cell-based; conditions: A2780, 72 h, 1 μM test compound, 3 days of culture, read-out: proliferation inhibitory rate (%) of A2780 cells
Experimental: The proliferation inhibitory activity of the compound of the present invention against human ovarian cancer cell A2780 was evaluated by the following method.
Human ovarian cancer cells A2780 were seeded in a 384 well culture plate at 1000 cells in 30 μL of medium per well by using RPMI-1640 medium (Wako Pure Chemical Industries, Ltd.) containing 10% fetal bovine serum and penicillin/streptomycin. The next day, 10 μL of RPMI-1640 medium containing the test compound was added to the cells. After 3 days of culture, 20 μL of CellTiter-Glo Luminescent Cell Viability Assay solution (Promega) was added. The luminescence signal was measured using EnVision (PerkinElmer) and the inhibitory rate (%) of the test compound was calculated with a well free of seeding of cell as 100% inhibition.

Row | Structure (SMILES) | inhibition at 0.3 µM [1] [%] | inhibition at 1 µM [2] [%]
1 | Cn1cc(-c2cc(F)cc(CNC(=O)c3ncnc4nc(C5CCCCO5)n(C)c34)c2)cn1 (centres unmarked) [Example 63, N-(3-fluoro-5-(1-methyl-1H-pyrazol-4-yl)benzyl)-7-methyl-8-(tetrahydro-2H-pyran-2-yl)-7H-purine-6-carboxamide] | 102 | 98
2 | Cn1ncc(-c2cc(F)cc(CNC(=O)c3ncnc4nc(C5CCCC5)[nH]c34)c2)n1 [Example 71, 8-cyclopentyl-N-(3-fluoro-5-(2-methyl-2H-1,2,3-triazol-4-yl)benzyl)-7H-purine-6-carboxamide] | 100 | 70
3 | O=C(NCc1ccccc1Cl)c1nccc2nc(C3CCCC3)[nH]c12 [Example 81, N-(2-chlorobenzyl)-2-cyclopentyl-3H-imidazo[4,5-c]pyridine-4-carboxamide] | 97 | 56
4 | Cn1cc(-c2cccc(CNC(=O)c3nccc4nc(C5CCCC5)[nH]c34)c2)cn1 [Example 84, 2-cyclopentyl-N-(3-(1-methyl-1H-pyrazol-4-yl)benzyl)-3H-imidazo[4,5-c]pyridine-4-carboxamide] | 100 | 97
5 | Cn1cc(-c2cc(F)cc(CNC(=O)c3nccc4nc(C5CCCC5)[nH]c34)c2)cn1 [Example 86, 2-cyclopentyl-N-(3-fluoro-5-(1-methyl-1H-pyrazol-4-yl)benzyl)-3H-imidazo[4,5-c]pyridine-4-carboxamide] | 101 | 97
6 | Cn1cc(-c2cc(F)cc(CNC(=O)c3nccc4nc(C5CCCC5)n(C)c34)c2)cn1 [Example 88, 2-cyclopentyl-N-(3-fluoro-5-(1-methyl-1H-pyrazol-4-yl)benzyl)-3-methyl-3H-imidazo[4,5-c]pyridine-4-carboxamide] | 101 | 99
7 | Cn1cc(-c2cc(F)cc(CNC(=O)c3nccc4nc(C5CCCC5)[nH]c34)c2)nn1 [Example 89, 2-cyclopentyl-N-(3-fluoro-5-(1-methyl-1H-1,2,3-triazol-4-yl)benzyl)-3H-imidazo[4,5-c]pyridine-4-carboxamide] | 101 | 98
8 | Cn1cc(-c2cc(F)c(F)c(CNC(=O)c3nccc4nc(C5CCCC5)[nH]c34)c2)cn1 [Example 90, 2-cyclopentyl-N-(2,3-difluoro-5-(1-methyl-1H-pyrazol-4-yl)benzyl)-3H-imidazo[4,5-c]pyridine-4-carboxamide] | 101 | 96
9 | Cn1cc(-c2cc(F)cc(CNC(=O)c3nccc4nc(C5CCCC5)n(C)c34)c2)nn1 [Example 91, 2-cyclopentyl-N-(3-fluoro-5-(1-methyl-1H-1,2,3-triazol-4-yl)benzyl)-3-methyl-3H-imidazo[4,5-c]pyridine-4-carboxamide] | 101 | 98
10 | Cn1cc(-c2cc(F)cc(CNC(=O)c3nccc4nc(C5CCCC5)n(C)c34)c2)ccc1=O [Example 92, 2-cyclopentyl-N-(3-fluoro-5-(1-methyl-6-oxo-1,6-dihydropyridin-3-yl)benzyl)-3-methyl-3H-imidazo[4,5-c]pyridine-4-carboxamide] | 100 | 99
11 | Cn1cc2c(CNC(=O)c3nccc4nc(C5CCCC5)[nH]c34)cccc2n1 [Example 94, 2-cyclopentyl-N-((2-methyl-2H-indazol-4-yl)methyl)-3H-imidazo[4,5-c]pyridine-4-carboxamide] | 97 | 64
12 | Cn1ncc2cccc(CNC(=O)c3nccc4nc(C5CCCC5)[nH]c34)c21 [Example 95, 2-cyclopentyl-N-((1-methyl-1H-indazol-7-yl)methyl)-3H-imidazo[4,5-c]pyridine-4-carboxamide] | 99 | 56
13 | COc1cc(-c2cc(F)cc(CNC(=O)c3nccc4nc(C5CCCC5)n(C)c34)c2)ccn1 [Example 96, 2-cyclopentyl-N-(3-fluoro-5-(2-methoxypyridin-4-yl)benzyl)-3-methyl-3H-imidazo[4,5-c]pyridine-4-carboxamide] | 101 | 95
14 | Cn1c(C2CCCC2)nc2ccnc(C(=O)NCc3cc(F)cc(-c4cc[nH]c(=O)c4)c3)c21 [Example 97, 2-cyclopentyl-N-(3-fluoro-5-(2-oxo-1,2-dihydropyridin-4-yl)benzyl)-3-methyl-3H-imidazo[4,5-c]pyridine-4-carboxamide] | 101 | 98
15 | Cn1ccc(-c2cc(F)cc(CNC(=O)c3nccc4nc(C5CCCC5)n(C)c34)c2)cc1=O [Example 98, 2-cyclopentyl-N-(3-fluoro-5-(1-methyl-2-oxo-1,2-dihydropyridin-4-yl)benzyl)-3-methyl-3H-imidazo[4,5-c]pyridine-4-carboxamide] | 101 | 98
16 | CCn1c(C2CCCC2)nc2ccnc(C(=O)NCc3cc(F)cc(-c4cnn(C)c4)c3)c21 [Example 101, 2-cyclopentyl-3-ethyl-N-(3-fluoro-5-(1-methyl-1H-pyrazol-4-yl)benzyl)-3H-imidazo[4,5-c]pyridine-4-carboxamide] | 102 | 98
17 | Cn1cc(-c2cc(F)cc(CNC(=O)c3nccc4nc(C5CCOC5)[nH]c34)c2)cn1 (centres unmarked) [Example 103, N-(3-fluoro-5-(1-methyl-1H-pyrazol-4-yl)benzyl)-2-(tetrahydrofuran-3-yl)-3H-imidazo[4,5-c]pyridine-4-carboxamide] | 99 | 73
18 | Cn1cc(-c2cc(F)cc(CNC(=O)c3nccc4nc(CC5CCCC5)[nH]c34)c2)cn1 [Example 104, 2-(cyclopentylmethyl)-N-(3-fluoro-5-(1-methyl-1H-pyrazol-4-yl)benzyl)-3H-imidazo[4,5-c]pyridine-4-carboxamide] | 98 | 68
19 | Cn1cc(NC(=O)c2cccc(CNC(=O)c3nccc4nc(C5CCCC5)[nH]c34)c2)cn1 [Example 106, 2-cyclopentyl-N-(3-((1-methyl-1H-pyrazol-4-yl)carbamoyl)benzyl)-3H-imidazo[4,5-c]pyridine-4-carboxamide] | 99 | 84
20 | Cn1cc(-c2cc(F)cc(CNC(=O)c3nccc4nc(Cc5ccccc5)[nH]c34)c2)cn1 [Example 109, 2-benzyl-N-(3-fluoro-5-(1-methyl-1H-pyrazol-4-yl)benzyl)-3H-imidazo[4,5-c]pyridine-4-carboxamide] | 100 | 84
21 | Cn1cc(-c2cc(F)cc(CNC(=O)c3ncc(F)c4nc(C5CCCC5)n(C)c34)c2)cn1 [Example 113, 2-cyclopentyl-7-fluoro-N-(3-fluoro-5-(1-methyl-1H-pyrazol-4-yl)benzyl)-3-methyl-3H-imidazo[4,5-c]pyridine-4-carboxamide] | 101 | 99
22 | Cn1cc(-c2cc(F)cc(CNC(=O)c3nccc4nc(C5CCCC5)n(CCO)c34)c2)cn1 [Example 115, 2-cyclopentyl-N-(3-fluoro-5-(1-methyl-1H-pyrazol-4-yl)benzyl)-3-(2-hydroxyethyl)-3H-imidazo[4,5-c]pyridine-4-carboxamide] | 101 | 94
23 | Cn1cc(-c2cc(F)cc(CNC(=O)c3nccc4nc(C5CCOC5)n(C)c34)c2)cn1 (centres unmarked) [Example 117, N-(3-fluoro-5-(1-methyl-1H-pyrazol-4-yl)benzyl)-3-methyl-2-(tetrahydrofuran-3-yl)-3H-imidazo[4,5-c]pyridine-4-carboxamide] | 100 | 78
24 | Cn1cc(-c2cc(F)cc(CNC(=O)c3nccc4nc(CC5CC5)[nH]c34)c2)cn1 [Example 126, 2-(cyclopropylmethyl)-N-(3-fluoro-5-(1-methyl-1H-pyrazol-4-yl)benzyl)-3H-imidazo[4,5-c]pyridine-4-carboxamide] | 98 | 56
25 | Cn1cc(-c2cc(F)cc(CNC(=O)c3nccc4nc(C5CCCC5)n(CC(=O)O)c34)c2)cn1 [Example 127, (2-cyclopentyl-4-((3-fluoro-5-(1-methyl-1H-pyrazol-4-yl)benzyl)carbamoyl)-3H-imidazo[4,5-c]pyridin-3-yl)acetic acid] | 101 | 70
